Experimental data: patent publication US20230382924A1, “MODULATORS OF CYSTIC FIBROSIS TRANSMEMBRANE CONDUCTANCE REGULATOR” (VERTEX PHARMACEUTICALS INCORPORATED, priority 2020, published 2023)
Where “and” joins values, the source holds several entries; their conditions need not be identical. Equal entries are not always repeated. Where two headings read alike, the source gives them in different places. Blank lines part the entries; values can stand above or below the compound they belong to.

Assays:
F508del = biological target: T1, F508del (Homo sapiens, UniProt P13569, DEL508-508); test: 3T3 assay: membrane potential optical assay for F508del correction in NIH 3T3 cells; type: cell-based
T1 construct: expressed in transfected cells
Source text: 1. Membrane Potential Optical Methods for Assaying F508del Modulation Properties of Compounds
The assay utilizes fluorescent voltage sensing dyes to measure changes in membrane potential using a fluorescent plate reader (e.g., FLIPR III, Molecular Devices, Inc.) as a readout for increase in functional F508del in NIH 3T3 cells. The driving force for the response is the creation of a chloride ion gradient in conjunction with channel activation by a single liquid addition step after the cells have previously been treated with compounds and subsequently loaded with a voltage sensing dye.
2. Identification of Corrector Compounds
To identify correctors of F508del, a single-addition HTS assay format was developed. This HTS assay utilizes fluorescent voltage sensing dyes to measure changes in membrane potential on the FLIPR III as a measurement for increase in gating (conductance) of F508del in F508del NIH 3T3 cells. The F508del NIH 3T3 cell cultures were incubated with the corrector compounds at a range of concentrations for 18-24 hours at 37° C., and subsequently loaded with a redistribution dye. The driving force for the response is a Cl^− ion gradient in conjunction with channel activation with forskolin in a single liquid addition step using a fluorescent plate reader such as FLIPR III.
Bath Solution #1: (in mM) NaCl 160, KCl 4.5, CaCl2) 2, MgCl2 1, HEPES 10, pH 7.4 with NaOH.
Chloride-free bath solution: Chloride salts in Bath Solution #1 (above) are substituted with gluconate salts.
NIH3T3 mouse fibroblasts stably expressing F508del are used for optical measurements of membrane potential. The cells are maintained at 37° C. in 5% CO2 and 90% humidity in Dulbecco's modified Eagle's medium supplemented with 2 mM glutamine, 10% fetal bovine serum, 1×NEAA, b-ME, 1×pen/strep, and 25 mM HEPES in 175 cm^2 culture flasks. For all optical assays, the cells were seeded at ˜20,000/well in 384-well matrigel-coated plates. For the correction assays, the cells are cultured at 37° C. with and without compounds for 16-24 hours.

CFTR [1] = biological target: T2, CFTR (Homo sapiens, UniProt P13569); test: Membrane Potential Dye, Enteroid Assay A; type: cell-based; details: for EC50: read-out: Ent. A EC50
How it was run: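 Signal is reported as % Activity relative to a triple CFTR modulator control (3 μM + 3 μM + 300 nM acute). Read-out: membrane potential fluorescence (20 μM methyl oxonol) monitored for 15 min after chloride-free stimulation. Dye loading took 25 min at room temperature in Bath 1 buffer containing CaCC blockers.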

CFTR [2] = biological target: T2, CFTR; test: Membrane Potential Dye, Enteroid Assay B; type: cell-based; details: for EC50: read-out: Ent. B EC50
How it was run: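 Enteroid cells loaded 25 min at room temperature with 20 μM methyl oxonol plus 30 μM CaCCinh-A01 and 30 μM Chicago Sky Blue, then switched to chloride-free gluconate buffer. Chloride transport was started by chloride-free stimulation solution, with fluorescence read for 15 min.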

T1 sequence (P13569 with tags, fused parts or gaps DEL508-508): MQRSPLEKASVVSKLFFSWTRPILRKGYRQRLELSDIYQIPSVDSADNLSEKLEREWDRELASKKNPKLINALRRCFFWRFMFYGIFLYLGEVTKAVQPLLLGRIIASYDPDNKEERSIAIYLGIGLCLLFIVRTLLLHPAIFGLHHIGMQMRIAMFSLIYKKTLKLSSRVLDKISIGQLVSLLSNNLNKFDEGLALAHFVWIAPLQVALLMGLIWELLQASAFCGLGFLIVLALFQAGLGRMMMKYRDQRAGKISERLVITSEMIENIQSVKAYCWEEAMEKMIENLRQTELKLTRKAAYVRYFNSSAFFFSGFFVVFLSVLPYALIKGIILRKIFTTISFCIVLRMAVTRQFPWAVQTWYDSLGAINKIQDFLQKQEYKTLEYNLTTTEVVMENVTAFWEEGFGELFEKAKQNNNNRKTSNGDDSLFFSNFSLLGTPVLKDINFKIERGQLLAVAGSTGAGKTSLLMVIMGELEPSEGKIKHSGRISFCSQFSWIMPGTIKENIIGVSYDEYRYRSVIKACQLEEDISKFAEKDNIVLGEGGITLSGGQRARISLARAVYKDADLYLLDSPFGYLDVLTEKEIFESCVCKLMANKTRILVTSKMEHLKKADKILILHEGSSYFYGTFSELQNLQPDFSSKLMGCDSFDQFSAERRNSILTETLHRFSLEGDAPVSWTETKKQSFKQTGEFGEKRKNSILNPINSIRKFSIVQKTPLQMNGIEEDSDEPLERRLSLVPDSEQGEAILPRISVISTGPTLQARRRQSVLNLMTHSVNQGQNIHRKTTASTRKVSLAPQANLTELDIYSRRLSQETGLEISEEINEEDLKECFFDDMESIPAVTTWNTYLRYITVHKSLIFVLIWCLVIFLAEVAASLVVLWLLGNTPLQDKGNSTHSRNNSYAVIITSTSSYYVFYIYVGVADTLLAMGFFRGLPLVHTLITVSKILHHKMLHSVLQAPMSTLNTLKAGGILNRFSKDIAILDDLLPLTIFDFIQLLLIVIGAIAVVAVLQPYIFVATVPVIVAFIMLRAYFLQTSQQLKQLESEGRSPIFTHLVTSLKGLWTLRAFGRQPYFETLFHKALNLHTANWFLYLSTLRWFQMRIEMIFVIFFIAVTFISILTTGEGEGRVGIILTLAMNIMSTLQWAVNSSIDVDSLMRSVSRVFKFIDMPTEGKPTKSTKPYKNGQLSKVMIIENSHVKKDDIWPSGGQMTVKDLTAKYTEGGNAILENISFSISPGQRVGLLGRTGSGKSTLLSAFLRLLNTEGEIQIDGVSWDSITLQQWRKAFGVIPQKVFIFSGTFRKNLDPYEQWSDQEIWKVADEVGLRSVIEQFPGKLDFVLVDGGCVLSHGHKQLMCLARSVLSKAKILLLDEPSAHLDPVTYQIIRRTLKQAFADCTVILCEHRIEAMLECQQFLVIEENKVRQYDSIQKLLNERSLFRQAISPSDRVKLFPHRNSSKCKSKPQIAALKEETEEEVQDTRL
T2 sequence (P13569 with tags, fused parts or gaps DEL508-508): as above

SMILES: Cc1cccc(C)c1-c1cc2nc(n1)NS(=O)(=O)C1CCC1C(=O)N[C@H](CC(C)C)CO2 (some centres unmarked)
- ring closure, yield after HPLC (from Cc1cccc(C)c1-c1cc(OC[C@H](N)CC(C)C)nc(NS(=O)(=O)C2CCC2C(=O)O)n1, amide bond, 12-membered ring, HATU/DIEA, DMF, 42.9 mM, 25.0 °C, 0.083 h, 2 steps): 4% and 8%

SMILES: Cc1cccc(C)c1-c1cc2nc(n1)NS(=O)(=O)c1cccc(c1)C(=O)NC1CC(CN(CCC(C)(C)C)C1)O2 (centres unmarked)
- ring closure, yield after HPLC (from Cc1cccc(C)c1-c1cc(Cl)nc(NS(=O)(=O)c2cccc(C(=O)NC3CC(O)CN(CCC(C)(C)C)C3)c2)n1, snar bond, 14-membered ring, NaH, NMP, 5.8 mM, 70.0 °C, 2.0 h, 2 steps): 2%
- ring closure, yield after HPLC (from Cc1cccc(C)c1-c1cc(Cl)nc(NS(=O)(=O)c2cccc(C(=O)NC3CC(O)CN(CCC(C)(C)C)C3)c2)n1, snar bond, 14-membered ring, NaH, NMP, 9.2 mM, 70.0 °C, 2.0 h, 2 steps): 3%

SMILES: Cc1cccc(C)c1-c1cc2nc(n1)NS(=O)(=O)c1cccc(c1)C(=O)NCC(c1ccc(C3CCC3)cc1)O2 (centres unmarked)
- ring closure, yield after HPLC (from Cc1cccc(C)c1-c1cc(OC(CN)c2ccc(C3CCC3)cc2)nc(NS(=O)(=O)c2cccc(C(=O)O)c2)n1, amide bond, 13-membered ring, HATU/DIEA, DMF, 189.0 mM, 25.0 °C, 0.5 h): 1%

SMILES: Cc1cccc(C)c1-c1cc2nc(n1)NS(=O)(=O)c1cccc(c1)C(=O)NCC(c1ccc([Si](C)(C)C)cc1)O2 (centres unmarked)
- ring closure, yield after HPLC (from Cc1cccc(C)c1-c1cc(OC(CN)c2ccc([Si](C)(C)C)cc2)nc(NS(=O)(=O)c2cccc(C(=O)O)c2)n1, amide bond, 13-membered ring, HATU/DIEA, DMF, 55.1 mM, 25.0 °C, 0.5 h): 23%

SMILES: Cc1cccc(C)c1-c1cc2nc(n1)NS(=O)(=O)c1cccc(c1)C(=O)NC[C@H](CO[Si](c1ccccc1)(c1ccccc1)C(C)(C)C)O2
- ring closure, yield after HPLC (from Cc1cccc(C)c1-c1cc(O[C@H](CN)CO[Si](c2ccccc2)(c2ccccc2)C(C)(C)C)nc(NS(=O)(=O)c2cccc(C(=O)O)c2)n1, amide bond, 13-membered ring, HATU/DIEA, DMF, 30.8 mM, 25.0 °C, 1.0 h, 2 steps): 98%

SMILES: Cc1cccc(C)c1-c1cc2nc(n1)NS(=O)(=O)c1cccc(c1)C(=O)N[C@H](CC(C)C)C(c1ccc(C(C)(C)C)cc1)O2 (some centres unmarked)
- ring closure, yield after HPLC (from Cc1cccc(C)c1-c1cc(OC(c2ccc(C(C)(C)C)cc2)[C@H](N)CC(C)C)nc(NS(=O)(=O)c2cccc(C(=O)O)c2)n1, amide bond, 13-membered ring, HATU/NaOtBu, DMF/THF, 69.4 mM, 25.0 °C, 2.0 h, 2 steps): 21% and 15%

SMILES: Cc1cccc(C)c1-c1nc2cc(n1)OC[C@@H](CC(C)C)NC(=O)c1cccc(c1)S(=O)(=O)N2
- ring closure, yield after HPLC (from Cc1cccc(C)c1-c1nc(NS(=O)(=O)c2cccc(C(=O)O)c2)cc(OC[C@H](N)CC(C)C)n1, amide bond, 13-membered ring, HATU/TEA, DMF, 12.2 mM, 25.0 °C, 0.083 h): 32%

- Emax (F508del; NIH3T3, Table 8, read-out: 3T3 Max Activity): > 60%
- EC50 (F508del; Table 8): < 1000 nM
- Ent. A Max Activity (CFTR [1]; Table 8): +++ (+++ is >60%)
- EC50 (CFTR [1]; Table 8): < 1000 nM
- Ent. B Max Activity (CFTR [2]; Table 8): +++ (+++ is >60%)
- EC50 (CFTR [2]; Table 8): < 1000 nM
SMILES: Cc1cccc(C)c1-c1cc2nc(n1)NS(=O)(=O)c1cccc(c1)C(=O)NC[C@@H](c1ccc(C(C)(C)C)cc1)O2 (single isomer, unassigned) [Compound 5]

- Ent. A Max Activity (CFTR [1]; Table 9): +++ (+++ is >60%)
- EC50 (CFTR [1]; Table 9): < 1000 nM
SMILES: COC[C@H]1NC(=O)c2cccc(c2)S(=O)(=O)Nc2nc(cc(-c3c(C)cccc3C)n2)O[C@@H]1c1ccc(C(C)(C)C)cc1 (single isomer, unassigned) [Compound 44]
- ring closure, yield after HPLC (from COC[C@@H](N)[C@H](Oc1cc(-c2c(C)cccc2C)nc(NS(=O)(=O)c2cccc(C(=O)O)c2)n1)c1ccc(C(C)(C)C)cc1, amide bond, 13-membered ring, HATU/DIEA, DMF, 162.0 mM, 0.5 h): 8%

SMILES: Cc1cccc(C)c1-c1cc2nc(n1)NS(=O)(=O)c1cccc(c1)C(=O)NC[C@H](c1ccccc1)O2 [Compound 26, (10S)-6-(2,6-Dimethylphenyl)-2,2-dioxo-10-phenyl-9-oxa-2λ^6-thia-3,5,12,19-tetrazatricyclo[12.3.1.14,8]nonadeca-1(18),4(19),5,7,14,16-hexaen-13-one]
- ring closure, yield after HPLC (from Cc1cccc(C)c1-c1cc(O[C@H](CN)c2ccccc2)nc(NS(=O)(=O)c2cccc(C(=O)O)c2)n1, amide bond, 13-membered ring, HATU/DIEA, DMF, 25.9 mM, 25.0 °C, 1.0 h, 2 steps): 38%

SMILES: Cc1cccc(C)c1-c1cc2nc(n1)NS(=O)(=O)c1cccc(c1)C(=O)NC[C@H](C)O2 [Compound 27, (10S)-6-(2,6-Dimethylphenyl)-10-methyl-2,2-dioxo-9-oxa-2λ^6-thia-3,5,12,19-tetrazatricyclo[12.3.1.14,8]nonadeca-1(18),4(19),5,7,14,16-hexaen-13-one]
- ring closure, yield after HPLC (from Cc1cccc(C)c1-c1cc(O[C@@H](C)CN)nc(NS(=O)(=O)c2cccc(C(=O)O)c2)n1, amide bond, 13-membered ring, HATU/DIEA, DMF, 25.0 °C, 1.0 h, 2 steps): 55%

- EC50 (F508del; NIH 3T3 cells, F508del correction): < 1000 nM
- Ent. A Max Activity (CFTR [1]; Enteroid Assay A): +++ (+++ is >600%)
- EC50 (CFTR [1]; Enteroid Assay A): < 1000 nM
- EC50 (CFTR [2]; Enteroid Assay B): < 1000 nM
SMILES: Cc1cccc(C)c1-c1cc2nc(n1)NS(=O)(=O)c1cccc(c1)C(=O)N[C@H](CC(C)(C)C)CO2 [Compound 97, (11R)-6-(2,6-dimethylphenyl)-11-(2,2-dimethylpropyl)-2,2-dioxo-9-oxa-2λ^6-thia-3,5,12,19-tetrazatricyclo[12.3.1.14,8]nonadeca-1(18),4(19),5,7,14,16-hexaen-13-one]
